Tested on: 743489-274-T-PDC complex spheroid viability
Assay: Anticancer human tumor 743489-274-T-PDC patient-derived renal cell carcinoma cell line growth inhibition
Details: for IC50: curve of first compound; for viability, T/C: stronger effect = lower value
Text: Multicellular complex tumor spheroid response to LSD1 Inhibitor Iadademstat in combination with a variety of drugs and investigational agents in selected tumor cell lines
The current study was undertaken to assess response to LSD1 inhibitors in combination with standard-of-care drugs and investigational agents in solid tumor complex spheroid models as well as in the K-562 leukemia. Complex spheroids include a stromal component modeled by human endothelial cells (HUVEC) and fibroblasts modeled by human mesenchymal stem cells (MSCs). The concentration ranges selected for each drug and investigational agent were based upon clinically achievable concentrations if the clinical Cmax of the agent was known.
Compounds. The drugs and investigational agents used in this study are listed on Table 1. All of the agents used, including staurosporine (NSC755774) and gemcitabine (NSC613327), were obtained from the Developmental Therapeutics Program, NCI. FDA-approved anticancer drugs are available from the NCI at http://dtp.nci.nih.gov/branches/dscb/oncology_drugset_explanation.html. Drugs and investigational agents were >95% pure by proton nuclear magnetic resonance (NMR) and liquid chromatography/mass spectrometry (LC/MS). Stock solutions were prepared at 400x in DMSO, stored at -70 degrees C, and diluted in fresh medium prior to their use. The final concentration of DMSO in cell culture wells never exceeded 0.25% (v/v). The FDA-approved anticancer drug set is available from the Developmental Therapeutics Program at https://dtp.cancer.gov/organization/dscb/obtaining/available_plates.htm. All drugs and investigational agents were tested over a range starting from a high concentration at or near the clinical Cmax and decreasing in half-log increments. If the clinical Cmax for an agent had not been determined, the highest concentration tested was 10 microM.
Cell Lines. The patient-derived cancer cell (PDC) lines: 292921-168-R-J2-PDC, K24384-001-R-PDC, and 521955-158-R2-J5-PDC pancreatic carcinomas, 556581-035-R-J1 ovarian carcinoma, 324938-238-R-J1-PDC, 855422-203-R-J1-PDC and 883617-216-R-J1-PDC urothelial bladder carcinomas, 743489-274-T-PDC renal cell carcinoma, 138582-R-J1 Merkel cell tumor, K60290-347-R-J1 and K57222-313-R-J1-PDC glioblastomas, 653999-131-R-J2-PDC, LG0703-F948-PDC, and 349418-098-R-PDC non-small cell lung carcinomas, 885512-296-R-J2-PDC, 171881-019-R-J1-PDC breast carcinomas and 186277-243-T-J2-PDC and 233499-124-R-J2-PDC colon carcinomas were obtained from the NCI Patient-Derived Models Repository (PDMR, https://pdmr.cancer.gov). The established cell lines NCI/ADR-RES (RRID:CVCL_14520 and OVCAR-5 (RRID:CVCL_1628) ovarian carcinomas, 786-O (RRID:CVCL_1051) and A498 (RRID:CVCL_A498) renal cell carcinoma, NCI-H211 (ATCC, cat. CRL-5824; RRID:CVCL_1529), NCI-H196 (ATCC, cat. CRL-5823, RRID:CVCL_1509), SW 1271 (ATCC, cat. CRL-2177, RRID:CVCL_1716) and NCI-H1876 (ATCC, cat. CRL-5902, RRID:CVCL_1503) small cell lung carcinomas, MDA-MB-231 (RRID:CVCL_0062) and MDA-MB-468 (RRID:CVCL_0419)breast carcinomas (10-12). Pooled donor human umbilical vein endothelial cells (HUVEC, Lonza, cat. CC-2519) and human mesenchymal stem cells (hMSC, Lonza, cat. PT-2501) were purchased from Lonza (Walkersville, MD).
Cell Culture. All cells were maintained in an incubator at 37 degrees C and 5% CO2 with 95% humidity. The PDC lines were cultured according to standard operating procedures established by the NCI PDMR (https://pdmr.cancer.gov). Briefly all PDCs were thawed and cultured in Matrigel-coated flasks prepared with a working solution of 1X Ham's F-12 nutrient mix, without supplementation (Invitrogen, Waltham, MA, cat. 11765054), 100 U/mL penicillin-streptomycin (Invitrogen, cat. 15140122), and 2.5% Matrigel (Corning Inc., Corning, NY, cat. 354248) for the first three passages. […]

[1] = second compound 0.1 µM, first compound 0.000949 µM
[2] = second compound 0.1 µM, first compound 0.003 µM
[3] = second compound 0.1 µM, first compound 0.00949 µM
[4] = second compound 0.1 µM, first compound 0.03 µM
[5] = second compound 0.1 µM, first compound 0.0949 µM
[6] = second compound 0.1 µM, first compound 0.3 µM
[7] = second compound 0.316 µM, first compound 0.000949 µM
[8] = second compound 0.316 µM, first compound 0.003 µM
[9] = second compound 0.316 µM, first compound 0.00949 µM
[10] = second compound 0.316 µM, first compound 0.03 µM
[11] = second compound 0.316 µM, first compound 0.0949 µM
[12] = second compound 0.316 µM, first compound 0.3 µM
[13] = second compound 1 µM, first compound 0.000949 µM
[14] = second compound 1 µM, first compound 0.003 µM
[15] = second compound 1 µM, first compound 0.00949 µM
[16] = second compound 1 µM, first compound 0.03 µM
[17] = second compound 1 µM, first compound 0.0949 µM
[18] = second compound 1 µM, first compound 0.3 µM
[19] = second compound 3.16 µM, first compound 0.000949 µM
[20] = second compound 3.16 µM, first compound 0.003 µM
[21] = second compound 3.16 µM, first compound 0.00949 µM
[22] = second compound 3.16 µM, first compound 0.03 µM
[23] = second compound 3.16 µM, first compound 0.0949 µM
[24] = second compound 3.16 µM, first compound 0.3 µM
[25] = second compound 10 µM, first compound 0.000949 µM
[26] = second compound 10 µM, first compound 0.003 µM
[27] = second compound 10 µM, first compound 0.00949 µM
[28] = second compound 10 µM, first compound 0.03 µM
[29] = second compound 10 µM, first compound 0.0949 µM
[30] = second compound 10 µM, first compound 0.3 µM
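Also: spheroids exposed to compounds for 7 days before readout.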
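For viability, T/C in this document: 100% = DMSO vehicle control wells.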

SMILES: CCc1c2c(nc3ccc(O)cc13)-c1cc3c(c(=O)n1C2)COC(=O)[C@]3(O)CC + NC1CC1c1ccc(-c2cccc(O)c2)cc1
- IC50 (second compound 0.1 µM): 4.88 nM
- IC50 (second compound 0.316 µM): 2.4 nM
- IC50 (second compound 1 µM): 2.71 nM
- IC50 (second compound 3.16 µM): 2.26 nM
- IC50 (second compound 10 µM): 3.52 nM
- viability, T/C [1]: 62.5%
- viability, T/C [2]: 52.5%
- viability, T/C [3]: 47.3%
- viability, T/C [4]: 33.7%
- viability, T/C [5]: 36.4%
- viability, T/C [6]: 33.5%
- viability, T/C [7]: 54.3%
- viability, T/C [8]: 51.7%
- viability, T/C [9]: 45.5%
- viability, T/C [10]: 35%
- viability, T/C [11]: 36.7%
- viability, T/C [12]: 40.2%
- viability, T/C [13]: 60.5%
- viability, T/C [14]: 51.9%
- viability, T/C [15]: 41.3%
- viability, T/C [16]: 39%
- viability, T/C [17]: 43.9%
- viability, T/C [18]: 42.7%
- viability, T/C [19]: 57%
- viability, T/C [20]: 48.7%
- viability, T/C [21]: 42.3%
- viability, T/C [22]: 33.5%
- viability, T/C [23]: 36.7%
- viability, T/C [24]: 34.5%
- viability, T/C [25]: 58.7%
- viability, T/C [26]: 50.8%
- viability, T/C [27]: 42.5%
- viability, T/C [28]: 35.3%
- viability, T/C [29]: 32%
- viability, T/C [30]: 38.8%

SMILES: Nc1ccn(C2OC(CO)C(O)C2(F)F)c(=O)n1 (stereo not given) + NC1CC1c1ccc(-c2cccc(O)c2)cc1
- IC50 (second compound 0.1 µM): > 300 nM
- IC50 (second compound 0.316 µM): 46.5 nM
- IC50 (second compound 1 µM): 153 nM
- IC50 (second compound 3.16 µM): 25.5 nM
- IC50 (second compound 10 µM): 110 nM
- viability, T/C [1]: 62.5%
- viability, T/C [2]: 58.5%
- viability, T/C [3]: 95.2%
- viability, T/C [4]: 58%
- viability, T/C [5]: 63.7%
- viability, T/C [6]: 48.5%
- viability, T/C [7]: 67.2%
- viability, T/C [8]: 56.3%
- viability, T/C [9]: 99.8%
- viability, T/C [10]: 51.4%
- viability, T/C [11]: 51.2%
- viability, T/C [12]: 44.2%
- viability, T/C [13]: 57.1%
- viability, T/C [14]: 51.7%
- viability, T/C [15]: 87%
- viability, T/C [16]: 53.9%
- viability, T/C [17]: 46.5%
- viability, T/C [18]: 47.1%
- viability, T/C [19]: 58.4%
- viability, T/C [20]: 62.2%
- viability, T/C [21]: 97.8%
- viability, T/C [22]: 46.3%
- viability, T/C [23]: 44%
- viability, T/C [24]: 48.4%
- viability, T/C [25]: 64.9%
- viability, T/C [26]: 51.4%
- viability, T/C [27]: 87.2%
- viability, T/C [28]: 47.6%
- viability, T/C [29]: 46.2%
- viability, T/C [30]: 44.9%

SMILES: O=C(c1cc(Cc2n[nH]c(=O)c3ccccc23)ccc1F)N1CCN(C(=O)C2CC2)CC1 + NC1CC1c1ccc(-c2cccc(O)c2)cc1
- IC50 (second compound 0.1 µM): > 10000 nM
- IC50 (second compound 0.316 µM): > 10000 nM
- IC50 (second compound 1 µM): > 10000 nM
- IC50 (second compound 3.16 µM): > 10000 nM
- IC50 (second compound 10 µM): > 10000 nM
- viability, T/C (second compound 0.1 µM, first compound 0.0316 µM): 112%
- viability, T/C (second compound 0.1 µM, first compound 0.1 µM): 115%
- viability, T/C (second compound 0.1 µM, first compound 0.316 µM): 106%
- viability, T/C (second compound 0.1 µM, first compound 1 µM): 113%
- viability, T/C (second compound 0.1 µM, first compound 3.16 µM): 95.7%
- viability, T/C (second compound 0.1 µM, first compound 10 µM): 92.5%
- viability, T/C (second compound 0.316 µM, first compound 0.0316 µM): 105%
- viability, T/C (second compound 0.316 µM, first compound 0.1 µM): 110%
- viability, T/C (second compound 0.316 µM, first compound 0.316 µM): 132%
- viability, T/C (second compound 0.316 µM, first compound 1 µM): 97.4%
- viability, T/C (second compound 0.316 µM, first compound 3.16 µM): 107%
- viability, T/C (second compound 0.316 µM, first compound 10 µM): 115%
- viability, T/C (second compound 1 µM, first compound 0.0316 µM): 117%
- viability, T/C (second compound 1 µM, first compound 0.1 µM): 104%
- viability, T/C (second compound 1 µM, first compound 0.316 µM): 114%
- viability, T/C (second compound 1 µM, first compound 1 µM): 93.8%
- viability, T/C (second compound 1 µM, first compound 3.16 µM): 93.3%
- viability, T/C (second compound 1 µM, first compound 10 µM): 94.7%
- viability, T/C (second compound 3.16 µM, first compound 0.0316 µM): 98.1%
- viability, T/C (second compound 3.16 µM, first compound 0.1 µM): 103%
- viability, T/C (second compound 3.16 µM, first compound 0.316 µM): 117%
- viability, T/C (second compound 3.16 µM, first compound 1 µM): 106%
- viability, T/C (second compound 3.16 µM, first compound 3.16 µM): 100%
- viability, T/C (second compound 3.16 µM, first compound 10 µM): 99.3%
- viability, T/C (second compound 10 µM, first compound 0.0316 µM): 118%
- viability, T/C (second compound 10 µM, first compound 0.1 µM): 121%
- viability, T/C (second compound 10 µM, first compound 0.316 µM): 120%
- viability, T/C (second compound 10 µM, first compound 1 µM): 120%
- viability, T/C (second compound 10 µM, first compound 3.16 µM): 95.8%
- viability, T/C (second compound 10 µM, first compound 10 µM): 94.2%

From PubChem BioAssay AID1918942 (Molecular Pharmacology Branch, DTP, NCI, 2023)
